Patent US20060063784A1, “Method of using substituted pyrazolo [1,5-a] pyrimidines” (priority 2004, published 2006)
pIC50: −log10 of the molar value. Like-named read-outs stand apart in the source and are kept apart here.

Tests used:
[1] = system: 80S14 (p21-deficient) cells; test: Cytotoxicity assay using isogenic cell lines: IC50 in 80S14 (p21-deficient) cells, SRB; type: cell-based, human; settings: Homo sapiens; for pIC50: 120 h, SRB; for IC50: 80S14, 120 h, read-out: IC50 for 80SI4 (uM)
How it was run: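 IC50 is the concentration halving proliferation relative to untreated controls, read from SRB absorbance (560 nm) after TCA fixation. Test agent dilutions (5 pM–50 μM or 170 pg/ml–10 μg/ml) were left on p21-deficient 80S14 cells (12,000/well, pre-incubated overnight) for 5 days at 37 °C.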

LoVo Colon cell line = test: Cytotoxicity assay using LoVo colon cell line, SRB; type: cell-based; settings: Homo sapiens, 96 h, read-out: Inhibition of LoVo
How it was run: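 Growth inhibition read by sulforhodamine B after 4-day compound exposure at 37 °C. Colon LoVo cells plated at 4000 per well in RPMI/10% FBS a day earlier; doses ranged 5 pM-20 μM or 170 pg/ml-10 μg/ml. IC50 is the concentration halving proliferation versus untreated wells.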

[2] = 80S14 (p21-deficient) cells, 5 days, class symbols, read-out: IC50 for 80S14
[3] = Cellular activity in LoVo cell, 4 days incubation, SRB
[4] = 80S14 p21-deficient cells, 5 days incubation, read-out: IC50 for 80SI4
[5] = LoVo colon cells, 4 days incubation, SRB

| Compound | pIC50 [1, 2] | pIC50 (LoVo Colon cell line; [3]) | pIC50 [1, 4] | pIC50 (LoVo Colon cell line; [5]) | also measured |
| --- | --- | --- | --- | --- | --- |
| CC(CC(=O)Nc1cc(-c2ccnc3c(C(=O)c4cccs4)cnn23)ccc1F)C(F)(F)F (centres unmarked) [Example 356, 4,4,4-Trifluoro-N-{2-fluoro-5-[3-(thien-2-ylcarbonyl)pyrazolo[1,5-a]pyrimidin-7-yl]phenyl}-3-methylbutanamide] | > 6.00 | > 7.00 |  |  |  |
| Cc1cc(-c2cccc(NC(=O)c3ccccc3)c2)n2ncc(C(=O)c3cccs3)c2n1 [Example 202, N-{3-[5-methyl-3-(thien-2-ylcarbonyl)pyrazolo[1,5-a]pyrimidin-7-yl]phenyl}benzamide] |  |  | 4.30 to 5.00 | 6.00 to 7.00 |  |
| Cc1cnc2c(C(=O)c3cccs3)cnn2c1-c1cccc(NC(=O)OCC(C)(C)C)c1 [Example 214, neopentyl 3-[6-methyl-3-(thien-2-ylcarbonyl)pyrazolo[1,5-a]pyrimidin-7-yl]phenylcarbamate] |  |  | 4.30 to 5.00 | 5.70 to 6.00 |  |
| Cc1cc(C)cc(-c2cnn3c(-c4cccc(-c5nnn[nH]5)c4)ccnc23)c1 [Example 491, 3-(3,5-Dimethylphenyl)-7-[3-(1H-tetraazol-5-yl)phenyl]pyrazolo[1,5-a]pyrimidine] | 5.00 to 6.00 | 4.70 to 6.00 |  |  |  |
| O=C(Nc1cccc(-c2ccnc3c(C(=O)c4cccs4)cnn23)c1)c1ccco1 [Example 285, N-{3-[3-(2-Thienylcarbonyl)pyrazolo[1,5-a]pyrimidin-7-yl]phenyl}-2-furamide] | > 6.00 | > 7.00 |  |  |  |
| O=C(O)c1ccccc1C(=O)Nc1cccc(-c2ccnc3c(C(=O)c4cccs4)cnn23)c1 [Example 443, 2-[({3-[3-(Thien-2-ylcarbonyl)pyrazolo[1,5-a]pyrimidin-7-yl]phenyl}amino)carbonyl]benzoic acid] | 4.30 to 5.00 | 4.70 to 6.00 |  |  |  |
| O=C(c1cccs1)c1cnn2c(-c3cccc(-c4nnn(CCO)n4)c3)ccnc12 [Example 513, (7-{3-[2-(2-Hydroxyethyl)-2H-tetraazol-5-yl]phenyl}pyrazolo[1,5-a]pyrimidin-3-yl)(thien-2-yl)methanone] | 5.00 to 6.00 | 6.00 to 7.00 |  |  |  |
| Cc1cc(-c2cccc(NC(=O)OCC(C)(C)C)c2)n2ncc(C(=O)c3cccs3)c2n1 [Example 200, neopentyl 3-[5-methyl-3-(thien-2-ylcarbonyl)pyrazolo[1,5-a]pyrimidin-7-yl]phenylcarbamate] |  |  | > 6.00 | 6.00 to 7.00 |  |
| Cc1cc(-c2cccc(NC(=O)C3CCCC3)c2)n2ncc(C(=O)c3cccs3)c2n1 [Example 204, N-{3-[5-methyl-3-(thien-2-ylcarbonyl)pyrazolo[1,5-a]pyrimidin-7-yl]phenyl}cyclopentanecarboxamide] |  |  | > 6.00 | 6.00 to 7.00 |  |
| O=C(c1cccs1)c1cnn2c(-c3cccc(NCC4CC=CCC4)c3)ccnc12 (centres unmarked) [Example 436, (7-{3-[(cyclohex-3-en-1-ylmethyl)amino]phenyl}pyrazolo[1,5-a]pyrimidin-3-yl)-(thien-2-yl)-methanone] | > 6.00 | > 7.00 |  |  |  |
| O=C(NCC1CCCCC1)Nc1cccc(-c2ccnc3c(C(=O)c4cccs4)cnn23)c1 [Example 160, N-(cyclohexylmethyl)-N′-{3-[3-(thien-2-ylcarbonyl)pyrazolo[1,5-a]pyrimidin-7-yl]phenyl}urea] |  |  | 5.00 to 6.00 | 6.00 to 7.00 |  |
| Cc1cc(C)cc(-c2cnn3c(-c4cccc(NC(=O)CC(C)C)c4)ccnc23)c1 [Example 476, N-{3-[3-(3,5-Dimethylphenyl)pyrazolo[1,5-a]pyrimidin-7-yl]phenyl}-3-methylbutanamide] | > 6.00 | > 7.00 |  |  |  |
| CC(C)CC(=O)Nc1cccc(-c2ccnc3c(-c4cccc(CN5CCN(C)CC5)c4)cnn23)c1 [Example 489, 3-Methyl-N-[3-(3-{3-[(4-methylpiperazin-1-yl)methyl]phenyl}pyrazolo[1,5-a]pyrimidin-7-yl)phenyl]butanamide] | 5.00 to 6.00 | 4.70 to 6.00 |  |  |  |
| O=C(c1cccs1)c1cnn2c(-c3cccc(-c4nnn[nH]4)c3)ccnc12 [Example 501, {7-[3-(1H-Tetraazol-5-yl)phenyl]pyrazolo[1,5-a]pyrimidin-3-yl}(thien-2-yl)methanone] | 4.30 to 5.00 | 4.70 to 6.00 |  |  |  |
| Nc1cccc(-c2cccc(-c3ccnc4c(C(=O)c5cccs5)cnn34)c2)c1 [Example 451, [7-(3′-Amino-1,1′-biphenyl-3-yl)pyrazolo[1,5-a]pyrimidin-3-yl](thien-2-yl)methanone] | > 6.00 | 6.00 to 7.00 |  |  |  |
| CC(C)(C)CCNc1cccc(-c2ccnc3c(C(=O)c4cccs4)cnn23)c1 [Example 372, (7-{3-[(3,3-Dimethylbutyl)amino]phenyl}pyrazolo[1,5-a]pyrimidin-3-yl)(thien-2-yl)methanone] | > 6.00 | > 7.00 |  |  |  |
| O=C(Nc1cccc(-c2ccnc3c(C(=O)c4cccs4)cnn23)c1)c1ccccc1Cl [Example 95, 2-chloro-N-{3-[3-(thien-2-ylcarbonyl)pyrazolo[1,5-a]pyrimidin-7-yl]phenyl}benzamide] |  |  | > 6.00 | > 7.00 |  |
| CC(C)CCC(=O)Nc1cccc(-c2ccnc3c(C(=O)c4cccs4)cnn23)c1 [Example 56, 4-methyl-N-{3-[3-(thien-2-ylcarbonyl)pyrazolo[1,5-a]pyrimidin-7-yl]phenyl}pentanamide] |  |  |  |  | IC50 [1]: < 1 µM; pIC50 (LoVo Colon cell line; LoVo): > 7.00 |
| O=C(Nc1cccc(-c2ccnc3c(C(=O)c4cccs4)cnn23)c1)NC1CCCCC1 [Example 3, N-cyclohexyl-N′-{3-[3-(thien-2-ylcarbonyl)pyrazolo[1,5-a]pyrimidin-7-yl]phenyl}urea] |  |  | > 6.00 | > 7.00 |  |
| CCCCNC(=O)Nc1cccc(-c2cc(C)nc3c(C(=O)c4cccs4)cnn23)c1 [Example 206, N-butyl-N′-{3-[5-methyl-3-(thien-2-ylcarbonyl)pyrazolo[1,5-a]pyrimidin-7-yl]phenyl}urea] |  |  | 5.00 to 6.00 | 6.00 to 7.00 |  |
| COc1ccccc1CNc1cccc(-c2ccnc3c(C(=O)c4cccs4)cnn23)c1 [Example 363, (7-{3-[(2-Methoxybenzyl)amino]phenyl}pyrazolo[1,5-a]pyrimidin-3-yl)(thien-2-yl)methanone] | 4.30 to 5.00 | 6.00 to 7.00 |  |  |  |
| C=CCOC(=O)Nc1cccc(-c2ccnc3c(C(=O)c4cccs4)cnn23)c1 [Example 14, allyl 3-[3-(thien-2-ylcarbonyl)pyrazolo[1,5-a]pyrimidin-7-yl]phenylcarbamate] |  |  |  |  | IC50 [1]: < 1 µM; pIC50 (LoVo Colon cell line; LoVo): > 7.00 |
| Cn1cccc1C(=O)Nc1cccc(-c2ccnc3c(C(=O)c4cccs4)cnn23)c1 [Example 387, 1-Methyl-N-{3-[3-(thien-2-ylcarbonyl)pyrazolo[1,5-a]pyrimidin-7-yl]phenyl}-1H-pyrrole-2-carboxamide] | > 6.00 | > 7.00 |  |  |  |
| O=C(Nc1ccc(-c2ccnc3c(C(=O)c4cccs4)cnn23)s1)c1ccccc1 [Example 361, N-{5-[3-(Thien-2-ylcarbonyl)pyrazolo[1,5-a]pyrimidin-7-yl]thien-2-yl}benzamide] | 4.30 to 5.00 | 4.70 to 6.00 |  |  |  |
| O=C(Nc1cccc(-c2ccnc3c(C(=O)c4cccs4)cnn23)c1)OCc1cccnc1 [Example 424, Pyridin-3-ylmethyl 3-[3-(thien-2-ylcarbonyl)pyrazolo[1,5-a]pyrimidin-7-yl]phenylcarbamate] | > 6.00 | 4.70 to 6.00 |  |  |  |
